Test results from patent US10167262B2, “Herbicidal substituted 3-arylpyrazoles” (FMC CORPORATION, priority 2014, dated 2019).

What was measured:
Type in all cases: in vivo
[1] = test system: barnyardgrass (Echinochloa crus-galli); experiment: Test B flooded paddy test, plant response rating 0-100; conditions: Flood, 250 g ai/ha; scale 0 to 100 (0 no effect, 100 complete control); 13 to 15 days
Summary of the method: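 Compound was added to standing water 3 cm above soil, flood maintained, and plants held in a greenhouse before visual scoring against controls at 13 to 15 days.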

[2] = test system: Brazilian crabgrass (Digitaria horizontalis); experiment: Test E pre-/postemergence greenhouse test, plant response rating 0-100; conditions: Digitaria horizontalis, post-emergence, Postemergence, scale 0 to 100, read-out: Plant response rating, Crabgrass, Brazil
Summary of the method: (§1)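 Greenhouse response on a 0 (none) to 100 (complete control) scale, assessed 14 to 21 days post-treatment. Soil-applied preemergence on silt loam; foliar postemergence on plants 2–18 cm high.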

[3] = test system: Italian ryegrass (Lolium multiflorum); experiment: as above; conditions: scale 0 to 100; for Ryegrass, Italian plant response rating: Preemergence
Summary of the method: as §1

[4] = test system: arrowleaf sida (Sida rhombifolia); experiment: as above; conditions: for Arrowleaf Sida plant response rating: Preemergence
Summary of the method: as §1

[5] = test system: barnyardgrass (Echinochloa crus-galli); experiment: as above; conditions: scale 0 to 100; for Barnyardgrass plant response rating: Preemergence
Summary of the method: as §1

corn (Zea mays) = experiment: as above; conditions: scale 0 to 100; for Corn plant response rating: Preemergence
Summary of the method: as §1

[6] = test system: dayflower (Virginia (VA) dayflower, Commelina virginica); experiment: as above; conditions: scale 0 to 100; for Dayflower, VA plant response rating: Preemergence
Summary of the method: as §1

COCC(=O)n1cc(C(=O)c2ccccc2)c(-c2cc(Cl)cc(Cl)c2)n1 [Compound 16, 1-[4-benzoyl-3-(3,5-dichlorophenyl)-1H-pyrazol-1-yl]-2-methoxyethanone]
25: Arrowleaf Sida plant response rating ([4]; 31 g ai/ha, scale 0 to 100)
100%: pest or weed control at 500 g/ha ([4]; Sida rhombifolia, post-emergence, Postemergence, 500 g ai/ha, scale 0 to 100 (0 no effect, 100 complete control))
90: Arrowleaf Sida plant response rating ([4]; 125 g ai/ha, scale 0 to 100)
98%: pest or weed control at 62 g/ha ([4]; Sida rhombifolia, post-emergence, Postemergence, 62 g ai/ha, scale 0 to 100) | pest or weed control at 125 g/ha ([4]; Sida rhombifolia, post-emergence, Postemergence, 125 g ai/ha, scale 0 to 100) | pest or weed control at 250 g/ha ([4]; Sida rhombifolia, post-emergence, Postemergence, 250 g ai/ha, scale 0 to 100)
0%: pest or weed control at 31 g/ha ([2]; 31 g ai/ha) | pest or weed control at 62 g/ha ([2]; 62 g ai/ha) | pest or weed control at 125 g/ha ([2]; 125 g ai/ha) | pest or weed control at 250 g/ha ([2]; 250 g ai/ha) | pest or weed control at 500 g/ha ([2]; 500 g ai/ha) | pest or weed control at 31 g/ha ([3]; Lolium multiflorum, post-emergence, Postemergence, 31 g ai/ha) | pest or weed control at 62 g/ha ([3]; Lolium multiflorum, post-emergence, Postemergence, 62 g ai/ha) | pest or weed control at 125 g/ha ([3]; Lolium multiflorum, post-emergence, Postemergence, 125 g ai/ha) | pest or weed control at 250 g/ha ([3]; Lolium multiflorum, post-emergence, Postemergence, 250 g ai/ha) | pest or weed control at 500 g/ha ([3]; Lolium multiflorum, post-emergence, Postemergence, 500 g ai/ha) | pest or weed control at 31 g/ha ([5]; Echinochloa crus-galli, post-emergence, Postemergence, 31 g ai/ha) | pest or weed control at 62 g/ha ([5]; Echinochloa crus-galli, post-emergence, Postemergence, 62 g ai/ha) | pest or weed control at 125 g/ha ([5]; Echinochloa crus-galli, post-emergence, Postemergence, 125 g ai/ha) | pest or weed control at 250 g/ha ([5]; Echinochloa crus-galli, post-emergence, Postemergence, 250 g ai/ha) | pest or weed control at 500 g/ha ([5]; Echinochloa crus-galli, post-emergence, Postemergence, 500 g ai/ha) | Corn plant response rating (crop injury, 0 = no effect, 100 = complete kill) at 31 g/ha (corn (Zea mays); Zea mays, post-emergence, Postemergence, 31 g ai/ha) | Corn plant response rating (crop injury, 0 = no effect, 100 = complete kill) at 62 g/ha (corn (Zea mays); Zea mays, post-emergence, Postemergence, 62 g ai/ha) | Corn plant response rating (crop injury, 0 = no effect, 100 = complete kill) at 125 g/ha (corn (Zea mays); Zea mays, post-emergence, Postemergence, 125 g ai/ha) | Corn plant response rating (crop injury, 0 = no effect, 100 = complete kill) at 250 g/ha (corn (Zea mays); Zea mays, post-emergence, Postemergence, 250 g ai/ha) | Corn plant response rating (crop injury, 0 = no effect, 100 = complete kill) at 500 g/ha (corn (Zea mays); Zea mays, post-emergence, Postemergence, 500 g ai/ha) | pest or weed control at 31 g/ha ([6]; Commelina virginica, post-emergence, Postemergence, 31 g ai/ha) | pest or weed control at 62 g/ha ([6]; Commelina virginica, post-emergence, Postemergence, 62 g ai/ha) | pest or weed control at 125 g/ha ([6]; Commelina virginica, post-emergence, Postemergence, 125 g ai/ha) | pest or weed control at 250 g/ha ([6]; Commelina virginica, post-emergence, Postemergence, 250 g ai/ha) | pest or weed control at 500 g/ha ([6]; Commelina virginica, post-emergence, Postemergence, 500 g ai/ha)
100: Arrowleaf Sida plant response rating ([4]; 500 g ai/ha, scale 0 to 100)
95%: pest or weed control at 31 g/ha ([4]; Sida rhombifolia, post-emergence, Postemergence, 31 g ai/ha, scale 0 to 100)
95: Arrowleaf Sida plant response rating ([4]; 250 g ai/ha, scale 0 to 100)
0: Plant response rating, Barnyardgrass [1] | Ryegrass, Italian plant response rating ([3]; 31 g ai/ha) | Ryegrass, Italian plant response rating ([3]; 62 g ai/ha) | Ryegrass, Italian plant response rating ([3]; 125 g ai/ha) | Ryegrass, Italian plant response rating ([3]; 250 g ai/ha) | Ryegrass, Italian plant response rating ([3]; 500 g ai/ha) | Barnyardgrass plant response rating ([5]; 31 g ai/ha) | Barnyardgrass plant response rating ([5]; 62 g ai/ha) | Barnyardgrass plant response rating ([5]; 125 g ai/ha) | Barnyardgrass plant response rating ([5]; 250 g ai/ha) | Barnyardgrass plant response rating ([5]; 500 g ai/ha) | Corn plant response rating (corn (Zea mays); 31 g ai/ha) | Corn plant response rating (corn (Zea mays); 62 g ai/ha) | Corn plant response rating (corn (Zea mays); 125 g ai/ha) | Corn plant response rating (corn (Zea mays); 250 g ai/ha) | Corn plant response rating (corn (Zea mays); 500 g ai/ha) | Dayflower, VA plant response rating ([6]; 31 g ai/ha) | Dayflower, VA plant response rating ([6]; 62 g ai/ha)
35: Arrowleaf Sida plant response rating ([4]; 62 g ai/ha, scale 0 to 100)
